According to ChEMBL document CHEMBL1144794, “Synthesis of 4'-modified noraristeromycins to clarify the effect of the 4'-hydroxyl groups for inhibitory activity against S-adenosyl-L-homocysteine hydrolase” (Bioorg Med Chem Lett, 2008):
The source made the active and inactive calls. The rule behind the calls is not given here.

Experiments:
[1] = Inhibition of Plasmodium falciparum recombinant SAHH
Adenosylhomocysteinase [2] = biological target: T1, Adenosylhomocysteinase (Homo sapiens, UniProt P23526); experiment: Inhibition of human recombinant SAHH
Target sequence in this assay (P23526 whole entry): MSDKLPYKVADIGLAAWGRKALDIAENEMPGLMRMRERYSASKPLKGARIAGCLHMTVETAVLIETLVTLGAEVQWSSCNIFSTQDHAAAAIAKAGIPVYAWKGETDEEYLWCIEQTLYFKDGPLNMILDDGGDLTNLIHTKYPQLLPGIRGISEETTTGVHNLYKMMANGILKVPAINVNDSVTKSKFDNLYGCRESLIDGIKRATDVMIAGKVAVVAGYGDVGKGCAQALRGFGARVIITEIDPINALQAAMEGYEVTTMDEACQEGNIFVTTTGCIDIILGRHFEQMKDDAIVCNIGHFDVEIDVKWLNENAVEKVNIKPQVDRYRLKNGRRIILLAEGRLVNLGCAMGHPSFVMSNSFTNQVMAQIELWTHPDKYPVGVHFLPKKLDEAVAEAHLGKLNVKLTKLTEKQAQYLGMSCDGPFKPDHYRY

Adenosylhomocysteinase [3] = biological target: T1, Adenosylhomocysteinase; experiment: Inhibition of human recombinant SAHH at 1000 uM
Target sequence in this assay (P23526 2-432 limits assumed): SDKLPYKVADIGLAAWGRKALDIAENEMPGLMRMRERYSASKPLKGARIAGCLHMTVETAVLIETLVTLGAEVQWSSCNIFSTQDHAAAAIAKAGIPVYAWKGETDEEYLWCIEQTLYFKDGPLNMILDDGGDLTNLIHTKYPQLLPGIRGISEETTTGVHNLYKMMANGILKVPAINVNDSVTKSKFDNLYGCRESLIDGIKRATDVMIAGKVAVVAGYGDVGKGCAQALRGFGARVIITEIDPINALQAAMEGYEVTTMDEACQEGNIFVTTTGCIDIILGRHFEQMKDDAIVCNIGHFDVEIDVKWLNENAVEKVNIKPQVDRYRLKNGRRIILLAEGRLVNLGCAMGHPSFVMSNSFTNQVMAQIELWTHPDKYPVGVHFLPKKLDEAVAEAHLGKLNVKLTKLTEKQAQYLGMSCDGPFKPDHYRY

Plasmodium falciparum = experiment: (§1) Inhibition of Plasmodium falciparum recombinant SAHH at 1000 uM
[4] = as §1

Row | Compound | IC50 [1] | IC50 (Adenosylhomocysteinase [2]) | Activity (Adenosylhomocysteinase [3]) | Activity (Plasmodium falciparum) | IC50 [4]
1 | Nc1ncnc2c1ncn2[C@@H]1C[C@H](O)[C@@H](O)[C@H]1O [NORARISTEROMYCIN] | 1.1 µM | 3.1 µM | – | – | –
2 | [N-]=[N+]=N[C@@H]1C[C@@H](n2cnc3c(N)ncnc32)[C@H](O)[C@@H]1O | 90 µM | 163 µM | – | – | –
3 | Nc1ncnc2c1ncn2[C@@H]1CC[C@@H](O)[C@H]1O | – | – | – | – | 9 µM
4 | Nc1ncnc2c1ncn2[C@@H]1C[C@H](F)[C@@H](O)[C@H]1O | 200 µM | – | inactive | – | –
5 | [N-]=[N+]=N[C@H]1C[C@@H](n2cnc3c(N)ncnc32)[C@H](O)[C@@H]1O | 117 µM | 123 µM | – | – | –
6 | Nc1nc(F)nc2c1ncn2[C@@H]1C[C@H](O)[C@@H](O)[C@H]1O | 63 µM | 13 µM | – | – | –
7 | Nc1ncnc2c1ncn2[C@@H]1C[C@@H](O)[C@@H](O)[C@H]1O | 79 µM | 7.6 µM | – | – | –

The remaining lines, values ahead:

Row | IC50 [1] | IC50 (Adenosylhomocysteinase [2]) | Activity (Adenosylhomocysteinase [3]) | Activity (Plasmodium falciparum) | IC50 [4] | Compound
8 | – | – | inactive | inactive | – | Nc1nc(N)c2ncn([C@@H]3C[C@H](OS(=O)(=O)O)[C@@H](O)[C@H]3O)c2n1
9 | > 500 µM | > 500 µM | – | – | – | Nc1ncnc2c1ncn2[C@@H]1C[C@@H](N)[C@@H](O)[C@H]1O
10 | – | – | inactive | inactive | – | Nc1nc(N)c2ncn([C@@H]3C[C@@H](OS(N)(=O)=O)[C@@H](O)[C@H]3O)c2n1
11 | – | – | inactive | inactive | – | Nc1nc(N)c2ncn([C@@H]3C[C@H](OS(N)(=O)=O)[C@@H](O)[C@H]3O)c2n1
12 | – | – | inactive | inactive | – | Nc1ncnc2c1ncn2[C@@H]1C[C@@H](OS(=O)(=O)O)[C@@H](O)[C@H]1O
13 | 126 µM | 76 µM | – | – | – | Nc1ncnc2c1ncn2[C@@H]1C[C@H](N)[C@@H](O)[C@H]1O
14 | – | – | inactive | inactive | – | Nc1ncnc2c1ncn2[C@@H]1C[C@H](OS(=O)(=O)O)[C@@H](O)[C@H]1O
15 | – | – | inactive | inactive | – | Nc1ncnc2c1ncn2[C@@H]1C[C@@H](OS(N)(=O)=O)[C@@H](O)[C@H]1O
16 | – | – | inactive | inactive | – | Nc1nc(N)c2ncn([C@@H]3C[C@@H](OS(=O)(=O)O)[C@@H](O)[C@H]3O)c2n1
17 | – | – | inactive | inactive | – | Nc1ncnc2c1ncn2[C@@H]1C[C@@H](F)[C@@H](O)[C@H]1O
18 | – | – | inactive | inactive | – | Nc1ncnc2c1ncn2[C@@H]1C[C@H](OS(N)(=O)=O)[C@@H](O)[C@H]1O
